Results reported in US20090143279A1 (priority 2007, published 2009).
Values joined by “and” are separate entries in the source; they are usually repeats but may differ in a detail not shown here. Equal values may be shown once. Where a name gives a salt, the structure may show the parent alone. Read-outs that look alike come from different tables or passages of the source.

Test system: cytochrome c
Format: cell-based, mouse
[1] = normalized score (composite Z-score vs DMSO mock-treated wells), compound concentration (μM)
[2] = composite Z-score vs mock-treated (DMSO) wells, concentration of each compound in μM

Structure (SMILES) | cyt c | cyt c [2] | other results
CC1(C)O[C@@H]2C[C@H]3[C@@H]4C[C@H](F)C5=CC(=O)C=C[C@]5(C)[C@H]4[C@@H](O)C[C@]3(C)[C@]2(C(=O)CO)O1 [flunisolide] | 0.715 |  | cyt c (composite Z-score vs DMSO): −0.257
Cc1cnc(C(=O)NCCc2ccc(S(=O)(=O)NC(=O)NC3CCCCC3)cc2)cn1 [glipizide] |  |  | cyt c (composite Z-score vs DMSO): 0.287
Clc1ccc(C(Cn2ccnc2)OCc2c(Cl)cccc2Cl)c(Cl)c1 (centres unmarked) [isoconazole] |  |  | cyt c [1]: −0.572
CC1(C)O[C@@H]2[C@@H](CO[C@@]3(COS(N)(=O)=O)OC(C)(C)O[C@@H]23)O1 [topiramate] |  | −0.093 | 
COCC(=O)Nc1c(I)c(C(=O)NCC(O)CO)c(I)c(C(=O)N(C)CC(O)CO)c1I (centres unmarked) [iopromide] |  | 0.263 | 
CC(=O)O[C@]1(C(C)=O)CC[C@H]2[C@@H]3C=C(C)C4=CC(=O)CC[C@]4(C)[C@H]3CC[C@@]21C [megestrol acetate] |  | 0.810 | 
C[C@]12CC[C@H](O)CC1=CC[C@@H]1[C@@H]2CC[C@]2(C)C(=O)CC[C@@H]12 [dehydroepiandrosterone] |  | −0.634 | 
CN1CCCCC1CCN1c2ccccc2Sc2ccc([S+](C)[O-])cc21 (centres unmarked) [mesoridazine] |  |  | cyt c (composite Z-score): −0.121
C[C@]12CC[C@H]3[C@@H](CCC4=CC(=O)CC[C@@]43C)[C@@H]1CC[C@@H]2O [testosterone] | −0.787 |  | 
O=C1CC2(CCCC2)CC(=O)N1CCCCN1CCN(c2ncccn2)CC1 [buspirone] | 0.228 |  | 
CC[N+](C)(C)Cc1ccccc1Br [bretylium] | 0.560 |  | cyt c (composite Z-score): 0.295
Nc1cc(C(Cl)=C(Cl)Cl)c(S(N)(=O)=O)cc1S(N)(=O)=O [clorsulon] | −0.186 |  | 
O=c1n(CCCN2CCN(c3cccc(Cl)c3)CC2)nc2ccccn12 [trazodone] |  |  | cyt c (composite Z-score vs DMSO): 0.028 and 0.038
NCCCCCC(=O)O [aminocaproic acid] |  |  | cyt c (composite Z-score vs DMSO mock-treated wells): 0.280
Cc1cc(O)cc(=O)o1 [4-hydroxy-6-methylpyran-2-one] | −0.316 |  | 
COC(=O)Nc1nc2ccc([S+]([O-])c3ccccc3)cc2[nH]1 (centres unmarked) [oxfendazole, reference compound] |  | −0.224 | 
OCCOCCN1CCN(C(c2ccccc2)c2ccc(Cl)cc2)CC1 (centres unmarked) [hydroxyzine] |  |  | cyt c [1]: 0.258
O=P1(N(CCCl)CCCl)NCCCO1 (centres unmarked) [cyclophosphamide] | −0.088 |  | 
O=C1C=CC(=O)c2c(O)cccc21 [juglone] |  |  | cyt c (composite Z-score vs DMSO): 0.266
CCN[C@H]1C[C@H](C)S(=O)(=O)c2sc(S(N)(=O)=O)cc21 [dorzolamide] |  |  | cyt c (composite Z-score vs DMSO): −0.076
CCC1(c2ccccc2)C(=O)NCNC1=O [primidone] | 0.296 and 0.193 |  | 
CCOC(=O)C1=C(COCCN)NC(C)=C(C(=O)OC)C1c1ccccc1Cl (centres unmarked) [amlodipine] |  | 0.902 | 
CO/N=C1\CN(c2nc3c(cc2F)c(=O)c(C(=O)O)cn3C2CC2)CC1CN (centres unmarked) [gemifloxacin] |  | 0.009 | 
CN(C/C=C/c1ccccc1)Cc1cccc2ccccc12 [naftifine] | 0.645 |  | 
COc1ccccc1N1CCN(CC(O)COc2cccc3ccccc23)CC1 (centres unmarked) [naftopidil] |  | 0.382 | 
CC1CCC(C(C)C)C(O)C1 (centres unmarked) [menthol] | −0.074 |  | 

Structure (SMILES) | cyt c | cyt c [2] | other results
COc1ccc2c3c1O[C@H]1C[C@@H](O)C=C[C@@]31CCN(C)C2 [galanthamine] | −1.112 |  | 
Cc1cc(O)c(C=O)c2c1C(=O)Oc1c(COC(=O)/C=C/C(=O)O)c(O)c(C(=O)O)c(C)c1O2 [fumarprotocetraric acid] |  | 0.505 | 
Oc1ccc(Cl)cc1 [parachlorophenol] | 0.036 |  | 
CN1[C@@H]2CC[C@H]1C[C@@H](OC(c1ccccc1)c1ccccc1)C2 [benztropine] |  |  | cyt c (composite Z-score vs DMSO mock-treated wells): −1.170
O=C(O)c1cccnc1 [niacin] |  |  | cyt c (composite Z-score vs DMSO): 0.736 and 1.132
Cc1cccc(C)c1NC(=O)C1CCCCN1C (centres unmarked) [mepivacaine] |  | −0.084 | 
CCCSP(=O)(OCC)SCCC [ethoprop] | 0.271 |  | 
Nc1nc2nc[nH]c2c(=S)[nH]1 [thioguanine] |  |  | cyt c (composite Z-score vs DMSO): −1.454
CCC(=O)c1ccc2c(c1)N(CC(C)N(C)C)c1ccccc1S2 (centres unmarked) [propiomazine] | −0.368 |  | 
NC[C@@H]1CC[C@@H](N)[C@@H](O[C@H]2[C@H](O)[C@@H](O[C@H]3O[C@H](CO)[C@@H](O)[C@H](N)[C@H]3O)[C@H](N)C[C@@H]2N)O1 [dibekacin] | 0.464 |  | 
CC(=O)Nc1nnc(S(N)(=O)=O)s1 [acetazolamide] |  |  | cyt c (composite Z-score vs DMSO): 0.698 and 0.613
NC1(C(=O)O)CCC1 [1-aminocyclobutane carboxylic acid] | −0.335 |  | 
CC(C)CCC[C@@H](C)[C@H]1CC[C@H]2[C@@H]3CC=C4CC(=O)CC[C@]4(C)[C@H]3CC[C@]12C [cholest-5-en-3-one] | 0.600 |  | 
CC(=O)N(CC(O)CN(C(C)=O)c1c(I)c(C(=O)NCC(O)CO)c(I)c(C(=O)NCC(O)CO)c1I)c1c(I)c(C(=O)NCC(O)CO)c(I)c(C(=O)NCC(O)CO)c1I (centres unmarked) [iodixanol] |  | −0.092 | 
Cn1cc[nH]c1=S [methimazole] |  |  | cyt c (composite Z-score vs DMSO): 1.745; cyt c (composite Z-score): −0.372
O=c1[nH]c2ccccc2n1CCCN1CCC(n2c(=O)[nH]c3cc(Cl)ccc32)CC1 [domperidone] | 0.276 |  | 
COc1ccc(-c2oc3c(CC=C(C)C)c(O[C@@H]4O[C@H](CO)[C@@H](O)[C@H](O)[C@H]4O)cc(O)c3c(=O)c2O[C@@H]2O[C@@H](C)[C@H](O)[C@@H](O)[C@H]2O)cc1 [icariin] |  | 0.073 | 
COC(=O)C1=CO[C@@H](C)[C@@H]2CN3CCc4c([nH]c5ccccc45)[C@@H]3C[C@H]12 [tetrahydroalstonine] |  | 1.439 | 
COc1c(Cl)ccc(Cl)c1C(=O)O [dicamba] | 0.278 |  | 
CO[C@H]1C[C@H](O[C@@H]2/C(C)=C/C[C@@H]3C[C@@H](C[C@]4(CC[C@H](C)[C@@H](C5CCCCC5)O4)O3)OC(=O)[C@@H]3C=C(C)/C(=N/O)[C@H]4OC/C(=C\C=C\[C@@H]2C)[C@]43O)O[C@@H](C)[C@@H]1O [selamectin] | 0.343 |  | 
CC(=O)CC(c1ccccc1)c1c(O)c2ccccc2oc1=O (centres unmarked) [warfarin] | 0.267 |  | 
O=C(NC(Cc1cc(=O)[nH]c2ccccc12)C(=O)O)c1ccc(Cl)cc1 (centres unmarked) [rebamipide] |  | −0.372 | 
CC(C)c1c(C(=O)Nc2ccccc2)c(-c2ccccc2)c(-c2ccc(F)cc2)n1CC[C@@H](O)C[C@@H](O)CC(=O)O [atorvastatin, reference compound] | −1.023 |  | 
Cc1onc(-c2c(Cl)cccc2Cl)c1C(=O)N[C@@H]1C(=O)N2[C@@H]1SC(C)(C)[C@@H]2C(=O)O [dicloxacillin sodium salt] | 0.836 |  | 
CC(N)C(O)c1ccccc1 (centres unmarked) [phenylpropanolamine] | 0.947 |  | 
OCCN1CCN(CCCN2c3ccccc3Sc3ccc(C(F)(F)F)cc32)CC1 [fluphenazine] |  |  | cyt c (composite Z-score vs DMSO mock-treated wells): −0.074

Structure (SMILES) | cyt c | cyt c [2] | other results
CC(C)(C)NC[C@H](O)COc1ccccc1C1CCCC1 [penbutolol] |  |  | cyt c [1]: 0.099
CO[C@H]1/C=C/O[C@@]2(C)Oc3c(C)c(O)c4c(O)c(c(/C=N/N5CCN(C)CC5)c(O)c4c3C2=O)NC(=O)/C(C)=C\C=C\[C@H](C)[C@H](O)[C@@H](C)[C@@H](O)[C@@H](C)[C@H](OC(C)=O)[C@@H]1C [rifampicin] | 0.319 |  | 
CC(C)(C)C(=O)C(Oc1ccc(Cl)cc1)n1cncn1 (centres unmarked) [triadimefon] | 0.286 |  | 
C=CCN1CC[C@]23c4c5ccc(O)c4O[C@H]2C(=O)CC[C@@]3(O)[C@H]1C5 [naloxone] | 0.362 and 0.610 |  | 
C[C@@H]1CC[C@H]2C(C)(C)[C@H]3C[C@@]12CC[C@@]3(C)O [cedrol] | −0.218 |  | 
CC(=C(CCO)SSCC1CCCO1)N(C=O)Cc1cnc(C)nc1N (stereo in doubt) [fursultiamine] | 0.477 |  | 
CN1[C@@H]2CC[C@H]1C[C@@H](OC(=O)C(CO)c1ccccc1)C2 (some centres unmarked) [atropine sulfate] | 0.071 |  | 
CC(NCCc1ccc(O)cc1)C(O)c1ccc(O)cc1 (centres unmarked) [ritodrine] |  | −0.072 | 
NC1(C(=O)O)CC1 [aminocyclopropanecarboxylic acid] |  |  | cyt c (composite Z-score vs DMSO): 0.213
C[C@]12CCC(=O)C=C1C=C[C@@H]1[C@@H]2CC[C@@]2(C)[C@H]1CC[C@@]21CCC(=O)O1 [canrenone] |  | 0.816 | 
COc1ccccc1OCCNCC(O)COc1cccc2[nH]c3ccccc3c12 (centres unmarked) [carvedilol] |  | −4.745 | 
CC(C)N1CCN(c2ccc(OCC3COC(Cn4cncn4)(c4ccc(Cl)cc4Cl)O3)cc2)CC1 (centres unmarked) [terconazole] |  | 0.552 | 
Cc1ccc(S(=O)(=O)NC(=O)NN2CC3CCCC3C2)cc1 (centres unmarked) [gliclazide] |  | 0.147 | 
N[C@@H](Cc1c[nH]cn1)C(=O)Nc1ccc2ccccc2c1 [N-histidyl-2-aminonaphthalene] |  | 0.214 | 
CC(C)(C(=O)O)c1ccc(C(O)CCCN2CCC(C(O)(c3ccccc3)c3ccccc3)CC2)cc1 (centres unmarked) [fexofenadine] | −0.751 |  | 
CC(=O)SCC(Cc1ccccc1)C(=O)NCC(=O)OCc1ccccc1 (centres unmarked) [racecadotril] |  | −0.249 | 
O=C1NS(=O)(=O)c2ccccc21 [saccharin] |  |  | cyt c (composite Z-score vs DMSO): 0.336
C[C@]12C=CC(=O)C=C1CC[C@H]1[C@@H]3C[C@@H](O)[C@](O)(C(=O)CO)[C@@]3(C)C[C@H](O)[C@@]12F [triamcinolone] | −1.483 |  | cyt c (composite Z-score vs DMSO): 0.087
CN1CCC(OC(c2ccccc2)c2ccccc2)CC1 [diphenylpyraline] | 0.321 and 0.558 |  | 
COc1cc2nc(N3CCN(C(=O)C4CCCO4)CC3)nc(N)c2cc1OC (centres unmarked) [terazosin] |  |  | cyt c (composite Z-score vs DMSO): −0.258
NCC(CC(=O)O)c1ccc(Cl)s1 (centres unmarked) [4-amino-3-(5-chlorothien-2-yl)butanoic acid] |  | 0.593 | 
O=C(Cc1cccs1)N[C@@H]1C(=O)N2C(C(=O)[O-])=C(C[n+]3ccccc3)CS[C@H]12 [cephaloridine] |  | −0.278 | 
CCCc1nc2c(C)cc(-c3nc4ccccc4n3C)cc2n1Cc1ccc(-c2ccccc2C(=O)O)cc1 [telmisartan] |  | −0.044 | 
COCCCC/C(=N\OCCN)c1ccc(C(F)(F)F)cc1 [fluvoxamine] | 0.483 |  | 
